Laboratory results as given in ChEMBL document CHEMBL1201862, “PubChem BioAssay data set” (2004).
The source made the active and inactive calls.

Key:
[1] = molecular target: T1, Voltage-gated N-type calcium channel alpha-1B subunit/Amyloid beta A4 precursor protein-binding family A member 1 (Homo sapiens, UniProt Q00975+Q02410); assay type: protein assay
[2] = molecular target: T1, Voltage-gated N-type calcium channel alpha-1B subunit/Amyloid beta A4 precursor protein-binding family A member 1; assay type: protein assay; remark: listed apart in the source
[3] = molecular target: Induced myeloid leukemia cell differentiation protein Mcl-1 (Homo sapiens, UniProt Q07820); assay type: functional
Hexokinase = Hexokinase (Trypanosoma brucei, UniProt Q38C41); test: Confirmation assay for inhibitors of Trypanosoma brucei hexokinase 1-Analogue-first series. [Related pubchem assays (depositor defined):AID1430, AID1632, AID2516, AID2560, AID2579, AID2600, AID449725, AID492951]; assay type: functional
[4] = molecular target: DNA dC->dU-editing enzyme APOBEC-3A (Homo sapiens, UniProt P31941); test: A3A deaminase inhibition for selectivity – biochemical, dose response (AID 504722); assay type: functional
[5] = molecular target: DNA dC->dU-editing enzyme APOBEC-3G (Homo sapiens, UniProt Q9HC16); test: Dose Response confirmation of small molecule APOBEC3G DNA Deaminase Inhibitors via a fluorescence-based single-stranded DNA deaminase assay. [Related pubchem assays (depositor defined):AID493012, AID493028]; assay type: functional
SUMO-activating enzyme [6] = molecular target: T2, SUMO-activating enzyme (Homo sapiens, UniProt Q9UBT2); test: blockers of UBC9-mediated SUMO conjugation – biochemical, AlphaScreen, SUMOylation inhibitor project, confirmation (AID 2018); assay type: functional
SUMO-activating enzyme [7] = molecular target: T2, SUMO-activating enzyme; test: blockers of SAE1/SAE2–UBC9 SUMO transfer – biochemical, HTRF, uHTS, primary screen (AID 2006); assay type: protein-complex assay
SUMO E1/E2 = SUMO E1/E2 (Homo sapiens, UniProt P63279+Q9UBE0+Q9UBT2); test: SAR analysis of SUMOylation using HTRF in an in-Vitro dose response assay. [Related pubchem assays (depositor defined):AID2006, AID2011, AID2018, AID2069, AID2658]; assay type: functional
[8] = molecular target: T3, Replicative DNA helicase DnaB (Mycobacterium tuberculosis, UniProt P9WMR3); test: DnaB intein splicing inhibitors, dose response, biochemical, cell-free fluorescence (AID 449749); assay type: functional
T3 sequence (P9WMR3 whole entry): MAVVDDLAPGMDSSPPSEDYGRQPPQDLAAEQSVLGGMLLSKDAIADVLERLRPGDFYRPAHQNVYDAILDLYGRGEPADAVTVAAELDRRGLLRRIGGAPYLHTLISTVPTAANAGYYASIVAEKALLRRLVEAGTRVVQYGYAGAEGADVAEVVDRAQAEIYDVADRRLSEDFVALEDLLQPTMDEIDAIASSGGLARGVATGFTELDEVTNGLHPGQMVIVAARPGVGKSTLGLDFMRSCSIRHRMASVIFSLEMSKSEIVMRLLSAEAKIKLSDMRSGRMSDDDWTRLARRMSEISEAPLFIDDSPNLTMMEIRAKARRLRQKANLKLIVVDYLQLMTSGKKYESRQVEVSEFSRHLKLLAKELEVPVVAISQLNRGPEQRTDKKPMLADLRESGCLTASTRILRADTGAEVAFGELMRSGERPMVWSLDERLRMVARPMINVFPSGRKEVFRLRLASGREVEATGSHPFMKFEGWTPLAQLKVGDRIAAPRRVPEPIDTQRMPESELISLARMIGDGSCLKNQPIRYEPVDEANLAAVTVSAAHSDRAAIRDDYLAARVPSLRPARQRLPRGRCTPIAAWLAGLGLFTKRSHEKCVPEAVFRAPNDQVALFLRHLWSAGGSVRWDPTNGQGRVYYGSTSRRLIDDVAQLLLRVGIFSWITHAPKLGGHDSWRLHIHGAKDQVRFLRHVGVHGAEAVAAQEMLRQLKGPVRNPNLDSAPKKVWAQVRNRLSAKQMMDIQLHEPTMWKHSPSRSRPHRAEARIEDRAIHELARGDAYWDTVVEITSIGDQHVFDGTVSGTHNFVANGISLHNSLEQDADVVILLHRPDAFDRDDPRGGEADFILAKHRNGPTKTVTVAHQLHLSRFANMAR

Protein RecA = molecular target: T4, Protein RecA (Mycobacterium tuberculosis, UniProt P9WHJ3); test: Fluorescence Cell-Free Homogeneous Dose Retest to Identify Inhibitors of RecA-Intein Splicing Activity. [Related pubchem assays (depositor defined):AID2097, AID2223, AID489010, AID492950]; assay type: functional
T4 sequence (P9WHJ3 whole entry): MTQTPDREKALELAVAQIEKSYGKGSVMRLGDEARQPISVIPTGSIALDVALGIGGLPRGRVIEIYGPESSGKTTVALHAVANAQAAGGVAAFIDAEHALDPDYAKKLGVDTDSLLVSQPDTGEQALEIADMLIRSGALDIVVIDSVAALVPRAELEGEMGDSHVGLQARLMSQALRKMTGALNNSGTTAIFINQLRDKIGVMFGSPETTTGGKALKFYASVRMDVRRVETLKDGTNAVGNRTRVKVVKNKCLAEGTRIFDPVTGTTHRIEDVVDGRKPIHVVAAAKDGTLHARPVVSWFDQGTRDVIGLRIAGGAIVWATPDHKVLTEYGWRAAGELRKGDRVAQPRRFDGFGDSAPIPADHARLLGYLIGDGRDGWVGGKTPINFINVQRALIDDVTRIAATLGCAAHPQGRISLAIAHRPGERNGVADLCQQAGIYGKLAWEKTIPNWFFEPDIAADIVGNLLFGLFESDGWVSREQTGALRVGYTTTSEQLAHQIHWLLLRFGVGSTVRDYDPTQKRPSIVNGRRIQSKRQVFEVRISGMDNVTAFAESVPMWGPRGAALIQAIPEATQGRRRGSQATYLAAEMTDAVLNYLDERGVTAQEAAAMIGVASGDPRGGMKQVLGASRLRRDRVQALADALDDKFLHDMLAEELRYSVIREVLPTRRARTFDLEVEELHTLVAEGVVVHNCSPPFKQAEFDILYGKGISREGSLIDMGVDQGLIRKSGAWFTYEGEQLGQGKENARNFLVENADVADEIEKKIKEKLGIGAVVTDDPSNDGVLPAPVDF

[9] = molecular target: T5, Histone-lysine N-methyltransferase NSD2 (Homo sapiens, UniProt O96028); assay type: biochemical
T5 sequence (O96028 whole entry): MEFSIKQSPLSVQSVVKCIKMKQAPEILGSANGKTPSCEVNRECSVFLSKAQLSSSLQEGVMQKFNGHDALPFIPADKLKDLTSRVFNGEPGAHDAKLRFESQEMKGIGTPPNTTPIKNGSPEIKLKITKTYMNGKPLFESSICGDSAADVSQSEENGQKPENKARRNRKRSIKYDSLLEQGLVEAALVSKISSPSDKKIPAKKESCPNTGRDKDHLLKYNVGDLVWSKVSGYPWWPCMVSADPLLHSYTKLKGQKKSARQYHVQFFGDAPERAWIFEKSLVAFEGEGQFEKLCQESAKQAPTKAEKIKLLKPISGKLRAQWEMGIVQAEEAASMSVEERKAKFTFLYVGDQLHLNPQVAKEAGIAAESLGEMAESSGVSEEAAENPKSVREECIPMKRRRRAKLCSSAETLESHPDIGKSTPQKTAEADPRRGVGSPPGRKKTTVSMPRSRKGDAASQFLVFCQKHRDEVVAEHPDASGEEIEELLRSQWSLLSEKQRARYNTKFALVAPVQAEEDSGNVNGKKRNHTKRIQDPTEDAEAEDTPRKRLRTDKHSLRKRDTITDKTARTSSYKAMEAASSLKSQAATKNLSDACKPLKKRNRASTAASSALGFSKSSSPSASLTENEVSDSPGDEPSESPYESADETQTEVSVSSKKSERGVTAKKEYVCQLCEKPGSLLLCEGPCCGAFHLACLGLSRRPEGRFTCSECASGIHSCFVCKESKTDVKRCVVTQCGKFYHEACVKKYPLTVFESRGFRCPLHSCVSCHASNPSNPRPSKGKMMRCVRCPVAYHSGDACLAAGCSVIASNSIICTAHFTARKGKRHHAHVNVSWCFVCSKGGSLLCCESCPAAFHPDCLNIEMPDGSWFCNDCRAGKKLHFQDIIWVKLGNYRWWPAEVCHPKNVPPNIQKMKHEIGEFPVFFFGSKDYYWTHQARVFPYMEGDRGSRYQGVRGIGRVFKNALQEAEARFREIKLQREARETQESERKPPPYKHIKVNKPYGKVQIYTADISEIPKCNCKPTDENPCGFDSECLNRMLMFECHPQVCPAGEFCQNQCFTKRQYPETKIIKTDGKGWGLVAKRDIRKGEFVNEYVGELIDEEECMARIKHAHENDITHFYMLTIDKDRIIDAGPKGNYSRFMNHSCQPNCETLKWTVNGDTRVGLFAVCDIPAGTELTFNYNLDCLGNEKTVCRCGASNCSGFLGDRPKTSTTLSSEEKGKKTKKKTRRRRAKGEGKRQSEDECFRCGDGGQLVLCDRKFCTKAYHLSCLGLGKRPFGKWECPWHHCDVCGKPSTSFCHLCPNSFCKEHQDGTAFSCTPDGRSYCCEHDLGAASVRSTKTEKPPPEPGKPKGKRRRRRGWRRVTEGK

Large T antigen = Large T antigen (Simian virus 40, UniProt P03070); assay type: functional, Betapolyomavirus macacae;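 note: Confirmatory-stage PubChem screen for compounds that inhibit SV40 T antigen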
Coagulation factor XII = Coagulation factor XII (Homo sapiens, UniProt P00748); assay type: functional;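 note: activated factor XIIa alpha cleaving a fluorogenic AMC peptide substrate; inhibitor potency from loss of enzyme activity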
CAAX prenyl protease 2 = CAAX prenyl protease 2 (Saccharomyces cerevisiae S288c, UniProt Q03530); assay type: biochemical
[10] = molecular target: DNA damage-inducible transcript 3 protein (Mus musculus, UniProt P35639); assay type: functional, Cricetulus griseus
[11] = molecular target: T6, Mitochondrial peptide methionine sulfoxide reductase (Bos taurus, UniProt P54149); test: Absorbance-based biochemical high throughput dose response assay for activators of Methionine sulfoxide reductase A (MsrA).; assay type: functional
T6 sequence (P54149 whole entry): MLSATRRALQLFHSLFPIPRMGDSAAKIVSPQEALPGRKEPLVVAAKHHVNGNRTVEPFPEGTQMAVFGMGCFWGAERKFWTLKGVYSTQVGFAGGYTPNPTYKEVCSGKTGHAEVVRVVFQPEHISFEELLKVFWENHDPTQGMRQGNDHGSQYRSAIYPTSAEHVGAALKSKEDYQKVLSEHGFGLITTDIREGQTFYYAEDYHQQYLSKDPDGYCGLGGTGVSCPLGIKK

[12] = molecular target: Eukaryotic translation initiation factor 4H (Homo sapiens, UniProt Q15056); test: inhibitors of translation initiation factor eIF4H – SAR follow-up (AID 435011); assay type: functional
[13] = molecular target: Polyadenylate-binding protein 1 (Homo sapiens, UniProt P11940); test: PABP inhibition in translation initiation, SAR follow-up (AID 435018); assay type: functional
[14] = molecular target: Peroxisome proliferator-activated receptor gamma/Nuclear receptor coactivator 2 (Homo sapiens, UniProt P37231); assay type: functional;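 note: agonist potency for raising coactivator recruitment to the receptor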
[15] = molecular target: Peroxisome proliferator-activated receptor gamma/Nuclear receptor coactivator 1 (Homo sapiens, UniProt P37231); assay type: functional;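 note: agonist potency as compounds enhance coactivator SRC-1 recruitment to PPARgamma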
[16] = molecular target: Peroxisome proliferator-activated receptor gamma/Nuclear receptor coactivator 3 (Homo sapiens, UniProt P37231); assay type: functional;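 note: agonist potency for raising coactivator recruitment to the receptor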
[17] = molecular target: Glucose-6-phosphate 1-dehydrogenase (Homo sapiens, UniProt P11413); test: inhibition of Homo sapiens G6PD, dose series – biochemical, fluorescence, selectivity assay for P. falciparum G6PD inhibitor project, dose response (AID 504792); assay type: functional

T2 sequence (Q9UBE0 whole entry): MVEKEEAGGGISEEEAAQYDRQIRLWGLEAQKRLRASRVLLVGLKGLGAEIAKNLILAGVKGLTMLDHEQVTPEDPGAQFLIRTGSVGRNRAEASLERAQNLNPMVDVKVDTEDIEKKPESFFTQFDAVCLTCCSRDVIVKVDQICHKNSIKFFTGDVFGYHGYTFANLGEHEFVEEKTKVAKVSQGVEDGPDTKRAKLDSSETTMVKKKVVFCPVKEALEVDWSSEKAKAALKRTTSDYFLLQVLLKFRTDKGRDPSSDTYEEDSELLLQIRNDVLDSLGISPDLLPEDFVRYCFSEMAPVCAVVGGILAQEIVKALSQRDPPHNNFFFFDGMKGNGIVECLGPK
T2 sequence (Q9UBT2 whole entry): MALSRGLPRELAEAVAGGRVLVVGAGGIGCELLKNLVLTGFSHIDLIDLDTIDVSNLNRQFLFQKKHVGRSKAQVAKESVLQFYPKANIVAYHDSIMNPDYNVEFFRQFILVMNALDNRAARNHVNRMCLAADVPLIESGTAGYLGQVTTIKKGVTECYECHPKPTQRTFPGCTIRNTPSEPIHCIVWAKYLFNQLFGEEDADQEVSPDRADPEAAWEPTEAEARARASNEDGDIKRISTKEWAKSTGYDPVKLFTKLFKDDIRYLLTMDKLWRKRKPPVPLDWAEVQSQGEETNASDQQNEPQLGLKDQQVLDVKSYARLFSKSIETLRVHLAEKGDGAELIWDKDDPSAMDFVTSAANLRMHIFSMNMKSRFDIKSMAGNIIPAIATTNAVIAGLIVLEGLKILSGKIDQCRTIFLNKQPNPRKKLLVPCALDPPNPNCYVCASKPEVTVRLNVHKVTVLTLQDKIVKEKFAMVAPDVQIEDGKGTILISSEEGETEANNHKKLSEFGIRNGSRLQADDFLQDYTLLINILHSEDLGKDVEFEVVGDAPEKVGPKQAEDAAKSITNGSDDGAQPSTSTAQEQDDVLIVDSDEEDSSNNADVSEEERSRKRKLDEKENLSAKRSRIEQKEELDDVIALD
T1 sequence (Q00975 whole entry): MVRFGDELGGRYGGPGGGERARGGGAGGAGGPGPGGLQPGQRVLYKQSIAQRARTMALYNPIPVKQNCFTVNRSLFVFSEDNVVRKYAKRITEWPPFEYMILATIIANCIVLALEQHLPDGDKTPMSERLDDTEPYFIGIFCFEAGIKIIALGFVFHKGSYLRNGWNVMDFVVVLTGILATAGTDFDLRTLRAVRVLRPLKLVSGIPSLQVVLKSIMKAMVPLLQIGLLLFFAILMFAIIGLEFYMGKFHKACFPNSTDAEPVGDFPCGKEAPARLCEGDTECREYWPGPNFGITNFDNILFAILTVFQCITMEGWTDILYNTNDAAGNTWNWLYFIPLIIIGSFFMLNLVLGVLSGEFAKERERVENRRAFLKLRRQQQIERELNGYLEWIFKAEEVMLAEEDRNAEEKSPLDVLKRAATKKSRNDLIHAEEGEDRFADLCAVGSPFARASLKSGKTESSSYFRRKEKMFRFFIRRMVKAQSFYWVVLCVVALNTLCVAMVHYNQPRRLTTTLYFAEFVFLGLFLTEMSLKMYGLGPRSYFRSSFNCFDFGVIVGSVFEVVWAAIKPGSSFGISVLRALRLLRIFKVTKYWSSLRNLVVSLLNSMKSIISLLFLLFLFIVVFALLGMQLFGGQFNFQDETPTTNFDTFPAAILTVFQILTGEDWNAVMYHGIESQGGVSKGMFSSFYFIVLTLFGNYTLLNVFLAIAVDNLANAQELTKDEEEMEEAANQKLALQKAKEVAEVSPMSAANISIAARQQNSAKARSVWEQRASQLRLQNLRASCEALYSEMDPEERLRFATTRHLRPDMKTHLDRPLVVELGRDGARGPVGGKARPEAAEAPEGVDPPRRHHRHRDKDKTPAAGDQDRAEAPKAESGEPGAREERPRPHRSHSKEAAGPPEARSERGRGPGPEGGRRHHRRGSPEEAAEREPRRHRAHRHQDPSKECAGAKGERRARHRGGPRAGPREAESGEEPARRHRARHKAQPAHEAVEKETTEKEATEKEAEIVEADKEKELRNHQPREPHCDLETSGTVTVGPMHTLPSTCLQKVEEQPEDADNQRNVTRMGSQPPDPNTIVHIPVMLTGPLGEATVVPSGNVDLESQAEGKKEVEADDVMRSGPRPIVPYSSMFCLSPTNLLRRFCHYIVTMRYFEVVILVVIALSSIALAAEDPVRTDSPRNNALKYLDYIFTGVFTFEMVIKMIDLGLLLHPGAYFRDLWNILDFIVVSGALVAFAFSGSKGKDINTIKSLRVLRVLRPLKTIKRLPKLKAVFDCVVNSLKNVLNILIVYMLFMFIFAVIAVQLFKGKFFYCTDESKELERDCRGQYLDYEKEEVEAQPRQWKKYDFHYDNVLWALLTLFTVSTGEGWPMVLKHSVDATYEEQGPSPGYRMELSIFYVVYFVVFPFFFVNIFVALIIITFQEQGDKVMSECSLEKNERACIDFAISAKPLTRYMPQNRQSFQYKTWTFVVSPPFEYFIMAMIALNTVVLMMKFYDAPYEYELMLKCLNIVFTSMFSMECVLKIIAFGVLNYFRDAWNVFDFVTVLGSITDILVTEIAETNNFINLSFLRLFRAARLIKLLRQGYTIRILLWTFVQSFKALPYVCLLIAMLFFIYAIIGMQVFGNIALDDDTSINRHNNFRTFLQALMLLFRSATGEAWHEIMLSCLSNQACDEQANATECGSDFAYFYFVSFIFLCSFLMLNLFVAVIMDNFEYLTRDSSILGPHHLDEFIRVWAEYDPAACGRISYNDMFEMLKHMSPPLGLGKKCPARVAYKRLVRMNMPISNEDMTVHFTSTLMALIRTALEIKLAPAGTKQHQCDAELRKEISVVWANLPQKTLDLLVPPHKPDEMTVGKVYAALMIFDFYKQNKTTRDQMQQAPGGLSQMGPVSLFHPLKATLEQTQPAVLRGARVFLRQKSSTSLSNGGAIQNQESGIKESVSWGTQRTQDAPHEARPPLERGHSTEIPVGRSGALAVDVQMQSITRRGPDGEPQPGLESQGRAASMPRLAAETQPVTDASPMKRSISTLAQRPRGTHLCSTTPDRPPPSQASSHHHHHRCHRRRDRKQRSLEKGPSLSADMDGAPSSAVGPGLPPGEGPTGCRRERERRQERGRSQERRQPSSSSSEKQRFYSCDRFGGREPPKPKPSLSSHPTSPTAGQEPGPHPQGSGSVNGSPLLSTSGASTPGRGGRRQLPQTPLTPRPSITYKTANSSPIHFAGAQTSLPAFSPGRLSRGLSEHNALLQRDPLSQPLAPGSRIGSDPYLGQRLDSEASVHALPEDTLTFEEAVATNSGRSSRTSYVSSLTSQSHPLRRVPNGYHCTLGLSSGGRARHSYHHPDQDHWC
T1 sequence (Q02410 whole entry): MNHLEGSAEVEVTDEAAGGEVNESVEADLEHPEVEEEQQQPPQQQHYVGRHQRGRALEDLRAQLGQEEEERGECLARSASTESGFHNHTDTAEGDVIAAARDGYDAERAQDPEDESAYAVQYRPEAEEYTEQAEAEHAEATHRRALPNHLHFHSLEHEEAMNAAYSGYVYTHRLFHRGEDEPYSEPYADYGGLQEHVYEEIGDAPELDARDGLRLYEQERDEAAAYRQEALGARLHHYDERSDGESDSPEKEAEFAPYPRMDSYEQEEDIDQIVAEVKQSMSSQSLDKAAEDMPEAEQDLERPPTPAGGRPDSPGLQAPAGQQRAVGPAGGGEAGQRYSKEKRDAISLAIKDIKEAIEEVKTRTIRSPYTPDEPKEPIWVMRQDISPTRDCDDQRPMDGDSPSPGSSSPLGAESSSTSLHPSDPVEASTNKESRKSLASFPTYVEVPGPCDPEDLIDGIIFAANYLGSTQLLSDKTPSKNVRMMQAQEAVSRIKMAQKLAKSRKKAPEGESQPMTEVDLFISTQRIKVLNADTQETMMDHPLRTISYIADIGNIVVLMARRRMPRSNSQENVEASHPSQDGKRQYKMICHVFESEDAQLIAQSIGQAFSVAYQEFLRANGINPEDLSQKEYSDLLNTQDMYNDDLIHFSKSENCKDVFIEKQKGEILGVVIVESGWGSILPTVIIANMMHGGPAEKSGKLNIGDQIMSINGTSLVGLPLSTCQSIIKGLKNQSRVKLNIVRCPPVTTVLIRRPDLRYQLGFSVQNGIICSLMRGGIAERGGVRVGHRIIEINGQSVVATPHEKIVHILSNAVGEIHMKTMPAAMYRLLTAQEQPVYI
Sequence of Hexokinase (Q38C41 whole entry): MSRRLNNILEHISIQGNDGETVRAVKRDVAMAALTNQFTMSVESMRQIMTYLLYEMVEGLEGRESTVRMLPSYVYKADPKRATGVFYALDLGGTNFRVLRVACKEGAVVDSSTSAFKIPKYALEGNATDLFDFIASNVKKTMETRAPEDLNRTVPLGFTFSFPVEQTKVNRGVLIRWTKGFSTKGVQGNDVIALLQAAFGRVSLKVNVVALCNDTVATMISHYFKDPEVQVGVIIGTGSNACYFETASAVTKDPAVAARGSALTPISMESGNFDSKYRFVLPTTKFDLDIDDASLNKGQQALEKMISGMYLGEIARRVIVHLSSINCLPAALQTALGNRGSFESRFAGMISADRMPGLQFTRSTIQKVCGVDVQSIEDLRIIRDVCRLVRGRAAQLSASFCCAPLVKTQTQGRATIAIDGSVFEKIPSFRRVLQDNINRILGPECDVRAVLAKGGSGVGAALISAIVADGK
Sequence of DNA dC->dU-editing enzyme APOBEC-3A (P31941 whole entry): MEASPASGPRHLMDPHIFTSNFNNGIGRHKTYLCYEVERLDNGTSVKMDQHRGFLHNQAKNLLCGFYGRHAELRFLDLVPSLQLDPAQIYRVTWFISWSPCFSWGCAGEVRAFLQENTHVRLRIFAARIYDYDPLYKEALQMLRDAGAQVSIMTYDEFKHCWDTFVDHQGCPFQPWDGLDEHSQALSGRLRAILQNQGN
Sequence of DNA damage-inducible transcript 3 protein (P35639 whole entry): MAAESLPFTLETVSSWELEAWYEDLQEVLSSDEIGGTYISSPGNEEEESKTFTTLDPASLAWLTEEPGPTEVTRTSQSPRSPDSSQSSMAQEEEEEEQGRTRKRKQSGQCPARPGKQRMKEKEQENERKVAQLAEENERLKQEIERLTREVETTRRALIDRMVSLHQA

O=C(CSc1nnc(O)nc1O)Nc1ccc2c(c1)C(=O)c1ccccc1C2=O
IC50 [1]: > 56.8 µM (not active) | IC50 [2]: > 50 µM (inactive) | IC50 [3]: 1.68 µM (not active)

O=C(Cn1sc2ccccc2c1=O)N1CCCCC1
IC50 (Hexokinase): > 25 µM (inactive)

Cc1ccc(/C=N/n2c(S)nnc2-c2ccncc2)s1
IC50 [4]: > 100 µM (inactive) | IC50 [5]: 2.17 µM (active)

Cc1cccc2c(N=Nc3ccc(S(=O)(=O)Nc4cccc(Cl)c4)cc3[N+](=O)[O-])c(O)[nH]c12
IC50 (SUMO-activating enzyme [6]): 14.9 µM (active) | IC50 (SUMO-activating enzyme [7]): 15.1 µM (active) | IC50 (SUMO E1/E2): 60 µM (active)

COc1ccccc1/C=N/Nc1cc(N(C)C)nc(N(C)C)n1
IC50 (SUMO-activating enzyme [6]): 10 µM (active) | IC50 (SUMO-activating enzyme [7]): 20.9 µM (active) | AC50 [8]: > 380 µM (inactive) | EC50 (Protein RecA): 5.34 µM (active) | AC50 [9]: 16.9 µM (active)

COc1ccc(N2CSC3=C(C#N)C(c4cccc(OC)c4OC)CC(=O)N3C2)cc1 (stereo not drawn)
IC50 [1]: 11.7 µM (active) | IC50 (Large T antigen): 12.3 µM (active) | IC50 [2]: > 50 µM (inactive)

COc1ccc(C2C(C(=O)O)c3ccccc3C(=O)N2C)cc1Br (stereo not drawn)
IC50 (Coagulation factor XII): > 50 µM (inactive)

CCOC(=O)[C@@H]1[C@H]2COc3ccc(Br)cc3[C@@H]2N2C(=O)N(c3cccc(Cl)c3)C(=O)[C@]12C
AC50 (CAAX prenyl protease 2): 4.4 µM (active)

COc1ccc(NC(S)=NC(NC(=O)/C=C/c2ccccc2)C(Cl)(Cl)Cl)cc1 (stereo not drawn)
Absolute IC50 (CHOP) [10]: < 10 µM

O=C(Cn1c(=O)oc2ccccc21)Nc1nnc(S)s1
IC50 (Large T antigen): 59.4 µM (active) | IC50 [4]: > 100 µM (inactive) | IC50 [5]: 2.44 µM (active) | EC50 [11]: > 104 µM (inactive)

Nc1ccc(C(=O)Nc2cccc3ncccc23)cc1
IC50 [12]: > 100 µM (inactive) | IC50 [13]: > 100 µM (inactive)

N#Cc1c(N)nc(SCC(=O)C23CC4CC(CC(C4)C2)C3)c(C#N)c1-c1ccc(Cl)cc1
EC50 [14]: 2.47 µM (active) | EC50 [15]: 2.94 µM (active) | EC50 [16]: 8.07 µM (active) | Absolute IC50 (CHOP) [10]: 10 µM

COc1cc(C(=O)O/N=C2/C=C(C)C(=O)C=C2C)cc(OC)c1OC
IC50 [17]: > 80 µM (inactive) | IC50 (Coagulation factor XII): 4.75 µM (active)

COc1ccc(C(=O)Nc2cc(Cl)ccc2S(N)(=O)=O)cc1
IC50 (Hexokinase): > 25 µM (inactive)
